Test results: article PMC7960226 (Science (New York, N.Y.), 2020)
Peptide text beside a SMILES is read from it.

Legend:
NR1I2 = NR1I2 (Homo sapiens, UniProt O75469); experiment: safety panel assay, NR1I2; type: binding; details: Table 2, NR1I2; accurate to ±20%
[1] = tested on: BioMAP Diversity PLUS panel; experiment: BioMAP Diversity PLUS panel of cell-based systems
ABCB11 = ABCB11 (Homo sapiens, UniProt O95342); experiment: transporter inhibition, ABCB11; type: biochemical; details: Table 2, ABCB11; accurate to ±20%
SLC18A2 = SLC18A2 (Homo sapiens, UniProt Q05940); experiment: transporter inhibition, SLC18A2; type: biochemical; details: Table 2, SLC18A2; accurate to ±20%
Chain of SLC18A2 (Q05940 whole entry, species assumed): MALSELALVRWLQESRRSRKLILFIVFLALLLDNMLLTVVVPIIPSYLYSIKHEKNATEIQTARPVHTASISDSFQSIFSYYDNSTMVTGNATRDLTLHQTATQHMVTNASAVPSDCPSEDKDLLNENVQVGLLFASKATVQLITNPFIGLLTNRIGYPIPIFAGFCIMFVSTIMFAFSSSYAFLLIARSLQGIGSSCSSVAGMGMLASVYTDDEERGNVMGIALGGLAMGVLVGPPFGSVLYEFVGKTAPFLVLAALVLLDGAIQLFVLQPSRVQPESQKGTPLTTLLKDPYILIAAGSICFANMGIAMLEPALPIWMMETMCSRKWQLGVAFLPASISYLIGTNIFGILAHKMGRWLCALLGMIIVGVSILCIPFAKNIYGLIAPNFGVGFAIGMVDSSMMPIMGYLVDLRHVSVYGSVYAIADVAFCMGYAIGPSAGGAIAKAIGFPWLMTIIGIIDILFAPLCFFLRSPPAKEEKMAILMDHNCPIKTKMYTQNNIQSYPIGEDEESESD

SLCO2B1 = target: T1, SLCO2B1 (Homo sapiens, UniProt O94956); experiment: in vitro transporter inhibition, SLCO2B1; type: biochemical
T1 sequence (O94956 1-709): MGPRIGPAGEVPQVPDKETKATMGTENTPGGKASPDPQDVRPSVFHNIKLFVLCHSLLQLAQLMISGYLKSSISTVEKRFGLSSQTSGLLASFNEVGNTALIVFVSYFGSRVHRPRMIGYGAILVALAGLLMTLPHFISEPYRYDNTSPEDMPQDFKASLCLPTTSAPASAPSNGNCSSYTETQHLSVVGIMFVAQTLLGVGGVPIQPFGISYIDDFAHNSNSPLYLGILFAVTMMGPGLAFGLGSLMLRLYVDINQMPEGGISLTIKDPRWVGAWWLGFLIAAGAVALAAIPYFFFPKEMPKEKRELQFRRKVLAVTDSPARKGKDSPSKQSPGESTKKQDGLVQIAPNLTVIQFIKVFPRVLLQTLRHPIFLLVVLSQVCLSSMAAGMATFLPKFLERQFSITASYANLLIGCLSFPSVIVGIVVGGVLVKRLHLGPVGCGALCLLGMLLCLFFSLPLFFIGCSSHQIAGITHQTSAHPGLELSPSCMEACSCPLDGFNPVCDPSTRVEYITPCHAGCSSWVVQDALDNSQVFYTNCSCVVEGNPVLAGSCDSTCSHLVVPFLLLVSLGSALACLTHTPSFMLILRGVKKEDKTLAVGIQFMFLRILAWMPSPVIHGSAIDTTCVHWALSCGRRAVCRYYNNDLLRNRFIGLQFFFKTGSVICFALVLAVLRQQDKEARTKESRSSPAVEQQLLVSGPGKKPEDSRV

SLC6A3 = SLC6A3 (Homo sapiens, UniProt Q01959); experiment: safety panel assay, SLC6A3; type: biochemical; details: Table 2, SLC6A3; accurate to ±20%
TBXA2R = TBXA2R (Homo sapiens, UniProt P21731); experiment: safety panel assay, TBXA2R; type: binding
Chain of TBXA2R (P21731 whole entry, species assumed): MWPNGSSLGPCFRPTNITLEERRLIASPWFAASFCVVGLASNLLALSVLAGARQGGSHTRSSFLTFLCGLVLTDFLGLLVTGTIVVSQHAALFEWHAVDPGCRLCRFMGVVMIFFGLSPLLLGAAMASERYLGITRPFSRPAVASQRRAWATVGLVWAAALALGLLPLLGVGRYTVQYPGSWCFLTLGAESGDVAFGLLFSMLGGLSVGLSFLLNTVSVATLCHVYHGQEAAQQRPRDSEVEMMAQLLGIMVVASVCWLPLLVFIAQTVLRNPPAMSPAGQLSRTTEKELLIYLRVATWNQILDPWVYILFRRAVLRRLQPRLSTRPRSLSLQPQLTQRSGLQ

CHRM1 = target: T2, CHRM1 (Homo sapiens, UniProt P11229)
T2 sequence (P11229 1-460): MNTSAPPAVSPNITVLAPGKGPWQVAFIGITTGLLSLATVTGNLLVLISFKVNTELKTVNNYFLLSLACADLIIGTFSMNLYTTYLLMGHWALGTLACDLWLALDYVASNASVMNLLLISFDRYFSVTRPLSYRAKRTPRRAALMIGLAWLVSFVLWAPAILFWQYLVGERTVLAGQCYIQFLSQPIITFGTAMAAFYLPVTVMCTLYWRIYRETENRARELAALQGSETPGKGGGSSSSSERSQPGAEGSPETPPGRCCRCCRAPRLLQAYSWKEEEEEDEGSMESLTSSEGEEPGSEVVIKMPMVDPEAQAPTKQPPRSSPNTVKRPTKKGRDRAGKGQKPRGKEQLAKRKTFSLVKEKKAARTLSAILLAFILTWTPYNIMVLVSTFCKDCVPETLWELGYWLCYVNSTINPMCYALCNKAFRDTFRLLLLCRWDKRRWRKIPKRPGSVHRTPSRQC

ADRA1A = target: T3, ADRA1A (Homo sapiens, UniProt P35348); details: Table 2, ADRA1A; accurate to ±20%
T3 sequence (P35348 1-466): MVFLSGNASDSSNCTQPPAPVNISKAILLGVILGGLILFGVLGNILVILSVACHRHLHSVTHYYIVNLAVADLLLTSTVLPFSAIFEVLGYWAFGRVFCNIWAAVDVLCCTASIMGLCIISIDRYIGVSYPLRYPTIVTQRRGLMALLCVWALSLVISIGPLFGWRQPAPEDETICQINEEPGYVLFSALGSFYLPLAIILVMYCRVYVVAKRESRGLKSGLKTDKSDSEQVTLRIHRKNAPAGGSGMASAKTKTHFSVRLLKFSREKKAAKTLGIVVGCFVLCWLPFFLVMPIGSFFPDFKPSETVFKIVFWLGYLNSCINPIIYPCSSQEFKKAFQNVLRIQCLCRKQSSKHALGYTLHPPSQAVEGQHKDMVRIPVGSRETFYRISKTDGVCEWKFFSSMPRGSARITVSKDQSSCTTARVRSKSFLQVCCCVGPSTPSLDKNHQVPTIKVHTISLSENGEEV

SLC6A2 = SLC6A2 (Homo sapiens, UniProt P23975); details: Table 2, SLC6A2; accurate to ±20%
Chain of SLC6A2 (P23975 whole entry, species assumed): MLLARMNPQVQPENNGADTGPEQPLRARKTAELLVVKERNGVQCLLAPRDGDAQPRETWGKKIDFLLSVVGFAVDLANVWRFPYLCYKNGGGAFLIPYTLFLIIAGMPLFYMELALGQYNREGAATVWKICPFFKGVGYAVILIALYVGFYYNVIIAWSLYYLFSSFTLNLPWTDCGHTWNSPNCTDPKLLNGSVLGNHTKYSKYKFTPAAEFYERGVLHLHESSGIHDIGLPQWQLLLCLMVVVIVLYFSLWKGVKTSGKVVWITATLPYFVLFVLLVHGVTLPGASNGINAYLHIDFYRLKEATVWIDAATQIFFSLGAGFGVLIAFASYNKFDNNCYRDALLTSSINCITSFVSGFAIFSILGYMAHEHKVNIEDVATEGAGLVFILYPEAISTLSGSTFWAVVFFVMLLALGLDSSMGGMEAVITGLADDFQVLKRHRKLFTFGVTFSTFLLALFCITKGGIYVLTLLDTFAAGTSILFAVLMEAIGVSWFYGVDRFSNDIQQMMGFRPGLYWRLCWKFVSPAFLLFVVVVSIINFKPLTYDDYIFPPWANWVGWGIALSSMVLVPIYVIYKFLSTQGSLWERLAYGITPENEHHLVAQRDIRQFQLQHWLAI

SCN5A = SCN5A (Homo sapiens, UniProt Q14524); details: Table 2, SCN5A; accurate to ±20%
[2] = Madin-Darby canine kidney permeability assay; details: dog, MDCK
[3] = Pharmacokinetics in rats after i.v. and oral administration; details: rat
PDE4D = PDE4D (Homo sapiens, UniProt Q08499); experiment: in vitro assay, PDE4D; type: biochemical; details: Table 2, PDE4D; accurate to ±20%
Chain of PDE4D (Q08499 whole entry): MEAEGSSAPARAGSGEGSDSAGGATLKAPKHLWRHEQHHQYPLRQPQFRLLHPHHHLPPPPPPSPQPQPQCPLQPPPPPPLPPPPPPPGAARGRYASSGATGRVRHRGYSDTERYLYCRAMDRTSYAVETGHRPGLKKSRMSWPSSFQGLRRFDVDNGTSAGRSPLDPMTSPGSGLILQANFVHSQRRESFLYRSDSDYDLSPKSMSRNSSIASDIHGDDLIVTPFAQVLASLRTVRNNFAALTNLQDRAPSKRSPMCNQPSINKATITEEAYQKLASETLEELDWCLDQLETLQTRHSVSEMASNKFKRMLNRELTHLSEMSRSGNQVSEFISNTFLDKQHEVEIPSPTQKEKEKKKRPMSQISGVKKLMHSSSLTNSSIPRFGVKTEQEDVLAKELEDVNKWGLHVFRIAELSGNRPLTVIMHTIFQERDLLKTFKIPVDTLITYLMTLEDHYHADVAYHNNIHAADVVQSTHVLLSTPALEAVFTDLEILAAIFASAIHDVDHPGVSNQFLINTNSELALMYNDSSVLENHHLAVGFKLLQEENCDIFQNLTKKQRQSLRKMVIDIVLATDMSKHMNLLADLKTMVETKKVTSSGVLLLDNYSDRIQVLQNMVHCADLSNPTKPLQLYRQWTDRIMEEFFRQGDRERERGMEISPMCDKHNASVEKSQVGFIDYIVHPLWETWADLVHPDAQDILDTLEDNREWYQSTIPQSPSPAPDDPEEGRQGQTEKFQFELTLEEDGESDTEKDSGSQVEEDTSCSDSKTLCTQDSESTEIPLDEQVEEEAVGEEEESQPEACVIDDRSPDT

HTR1A = HTR1A (Homo sapiens, UniProt P08908); experiment: safety panel assay, HTR1A; type: binding; details: Table 2, HTR1A; accurate to ±20%
ADORA3 = ADORA3 (Homo sapiens, UniProt P0DMS8); details: Table 2, ADORA3; accurate to ±20%
DRD3 = DRD3 (Homo sapiens, UniProt P35462); details: Table 2, DRD3; accurate to ±20%
PRG = PRG (Homo sapiens, UniProt P06401); details: Table 2, PRG; accurate to ±20%
Chain of PRG (P06401 whole entry): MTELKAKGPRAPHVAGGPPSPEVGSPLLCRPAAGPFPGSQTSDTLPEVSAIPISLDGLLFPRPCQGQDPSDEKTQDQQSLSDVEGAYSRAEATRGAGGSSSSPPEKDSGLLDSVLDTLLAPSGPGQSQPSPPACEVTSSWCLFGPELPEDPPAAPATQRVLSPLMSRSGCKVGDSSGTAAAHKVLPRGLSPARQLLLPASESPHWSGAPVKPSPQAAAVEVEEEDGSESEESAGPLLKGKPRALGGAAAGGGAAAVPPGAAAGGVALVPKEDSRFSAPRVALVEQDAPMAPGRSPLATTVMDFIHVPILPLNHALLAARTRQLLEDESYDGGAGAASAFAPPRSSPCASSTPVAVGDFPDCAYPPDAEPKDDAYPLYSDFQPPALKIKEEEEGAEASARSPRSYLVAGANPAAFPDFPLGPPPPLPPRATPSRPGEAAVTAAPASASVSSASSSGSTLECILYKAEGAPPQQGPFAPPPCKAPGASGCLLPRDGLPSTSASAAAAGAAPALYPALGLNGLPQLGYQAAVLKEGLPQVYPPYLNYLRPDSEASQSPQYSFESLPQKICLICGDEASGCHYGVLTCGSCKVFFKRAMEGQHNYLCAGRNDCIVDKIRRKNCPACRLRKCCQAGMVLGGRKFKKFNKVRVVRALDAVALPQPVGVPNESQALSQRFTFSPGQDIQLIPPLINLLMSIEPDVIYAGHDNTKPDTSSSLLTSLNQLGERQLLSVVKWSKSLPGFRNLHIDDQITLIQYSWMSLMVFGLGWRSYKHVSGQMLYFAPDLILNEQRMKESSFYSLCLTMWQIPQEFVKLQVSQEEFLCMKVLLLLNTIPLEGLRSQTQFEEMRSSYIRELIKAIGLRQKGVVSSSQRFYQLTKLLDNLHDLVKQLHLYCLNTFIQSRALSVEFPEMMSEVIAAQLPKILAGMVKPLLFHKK

SLCO1B1 = target: T4, SLCO1B1 (Homo sapiens, UniProt Q9Y6L6); experiment: in vitro transporter assay, SLCO1B1; details: Table 1, predicted target SLCO1B1
T4 sequence (Q9Y6L6 1-691): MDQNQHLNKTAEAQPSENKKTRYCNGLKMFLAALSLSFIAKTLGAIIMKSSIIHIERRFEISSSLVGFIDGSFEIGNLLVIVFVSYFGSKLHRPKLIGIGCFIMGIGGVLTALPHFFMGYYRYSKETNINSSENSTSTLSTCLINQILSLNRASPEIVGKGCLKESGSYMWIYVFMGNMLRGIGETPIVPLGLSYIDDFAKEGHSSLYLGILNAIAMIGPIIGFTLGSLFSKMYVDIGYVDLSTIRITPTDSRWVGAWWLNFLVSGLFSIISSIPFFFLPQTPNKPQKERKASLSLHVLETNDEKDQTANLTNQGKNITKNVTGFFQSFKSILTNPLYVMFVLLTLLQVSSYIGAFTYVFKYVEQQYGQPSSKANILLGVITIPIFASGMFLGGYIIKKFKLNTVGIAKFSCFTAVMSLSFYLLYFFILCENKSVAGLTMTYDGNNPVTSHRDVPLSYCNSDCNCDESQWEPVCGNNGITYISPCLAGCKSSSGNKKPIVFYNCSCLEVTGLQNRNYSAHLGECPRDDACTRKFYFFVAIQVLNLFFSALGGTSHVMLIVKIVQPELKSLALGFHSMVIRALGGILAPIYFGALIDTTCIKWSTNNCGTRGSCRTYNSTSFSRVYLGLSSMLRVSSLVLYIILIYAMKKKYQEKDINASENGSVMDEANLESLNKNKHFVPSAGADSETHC

PDE3A = PDE3A (Homo sapiens, UniProt Q14432); experiment: safety panel assay, PDE3A; type: biochemical
Chain of PDE3A (Q14432 whole entry, species assumed): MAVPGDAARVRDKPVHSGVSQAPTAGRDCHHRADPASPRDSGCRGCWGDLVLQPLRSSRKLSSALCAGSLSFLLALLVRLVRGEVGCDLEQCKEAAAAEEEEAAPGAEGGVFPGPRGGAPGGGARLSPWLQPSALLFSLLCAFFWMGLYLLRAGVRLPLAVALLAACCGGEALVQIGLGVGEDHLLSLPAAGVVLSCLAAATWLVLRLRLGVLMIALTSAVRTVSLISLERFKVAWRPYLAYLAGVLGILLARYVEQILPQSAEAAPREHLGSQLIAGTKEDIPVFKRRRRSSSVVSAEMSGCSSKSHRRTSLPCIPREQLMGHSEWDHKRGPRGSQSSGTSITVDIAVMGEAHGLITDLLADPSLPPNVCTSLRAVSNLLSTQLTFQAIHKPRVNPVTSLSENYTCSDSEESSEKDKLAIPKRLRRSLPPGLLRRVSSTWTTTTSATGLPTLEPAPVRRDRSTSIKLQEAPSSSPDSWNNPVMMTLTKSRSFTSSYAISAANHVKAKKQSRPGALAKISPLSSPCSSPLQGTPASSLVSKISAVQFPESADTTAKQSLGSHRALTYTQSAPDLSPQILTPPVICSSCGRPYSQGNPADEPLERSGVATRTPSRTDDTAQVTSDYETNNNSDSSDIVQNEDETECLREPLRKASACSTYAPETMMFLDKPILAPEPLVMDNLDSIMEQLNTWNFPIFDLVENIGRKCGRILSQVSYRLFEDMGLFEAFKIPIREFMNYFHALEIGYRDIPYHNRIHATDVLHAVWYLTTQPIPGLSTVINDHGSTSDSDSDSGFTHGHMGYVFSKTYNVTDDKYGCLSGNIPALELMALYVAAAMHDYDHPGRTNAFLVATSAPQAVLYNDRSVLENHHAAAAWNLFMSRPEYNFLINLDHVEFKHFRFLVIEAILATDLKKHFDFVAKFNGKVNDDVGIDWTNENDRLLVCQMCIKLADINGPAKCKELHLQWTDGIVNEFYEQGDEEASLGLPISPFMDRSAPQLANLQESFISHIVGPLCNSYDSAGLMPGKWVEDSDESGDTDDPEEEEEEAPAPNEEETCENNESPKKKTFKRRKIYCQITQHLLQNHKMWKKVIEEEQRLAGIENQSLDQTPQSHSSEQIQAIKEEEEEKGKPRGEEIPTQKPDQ

PRMT1 = PRMT1 (Homo sapiens, UniProt Q99873); details: Table 1, predicted target PRMT1
ACHE = ACHE (Homo sapiens, UniProt P22303); details: Table 2, ACHE; accurate to ±20%
[4] = rat, in vivo, 1 mg/kg
[5] = not given; remark: listed apart in the source

Chain of NR1I2 (O75469 whole entry, species assumed): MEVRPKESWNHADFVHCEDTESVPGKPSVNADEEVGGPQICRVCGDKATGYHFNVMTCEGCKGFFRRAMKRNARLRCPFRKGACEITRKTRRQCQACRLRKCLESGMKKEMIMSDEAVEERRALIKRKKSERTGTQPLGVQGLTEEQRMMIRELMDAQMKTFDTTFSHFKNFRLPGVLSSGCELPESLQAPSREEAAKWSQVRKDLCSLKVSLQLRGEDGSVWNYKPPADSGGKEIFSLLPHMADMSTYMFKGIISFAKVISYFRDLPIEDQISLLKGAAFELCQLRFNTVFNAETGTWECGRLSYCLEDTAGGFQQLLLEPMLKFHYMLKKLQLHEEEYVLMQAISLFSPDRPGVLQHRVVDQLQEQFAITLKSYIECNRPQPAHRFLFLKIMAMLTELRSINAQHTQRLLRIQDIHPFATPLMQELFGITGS

**Q.** What does the source list for COC(=O)[C@H](Cc1ccccc1)NC(=O)[C@@H](N)CC(=O)O [Aspartame] (HELM PEPTIDE1{D.F.[CO[*:1]]}$$$$V2.0)?
**A.** Ki/IC50 Or EC50 (NR1I2): 13 µM; activity in the BioMAP cell-based systems ([1]; 1.1, 3.3, 10, 30 μM): no measurable activity

**Q.** Which “Ki/IC50 Or EC50” value (ABCB11) does the source give for O=C(O)c1ccccc1 [Benzoic acid] here?
**A.** 260 µM

**Q.** What about the “Ki/IC50 Or EC50” value (SLC18A2) of the same molecule?
**A.** 18 µM

**Q.** For CCCCOC(=O)c1ccc(O)cc1 [Butylparaben], which “Ki/IC50 Or EC50” value (SLCO2B1; Table 2, SLCO2B1, accurate to ±20%) is on record?
**A.** 39 µM

**Q.** And the “Ki/IC50 Or EC50” value (SLC18A2)?
**A.** 6.6 µM

**Q.** What about the “Ki/IC50 Or EC50” value (SLC6A3) of the same molecule?
**A.** 18 µM

**Q.** What about the IC50 (TBXA2R) of the same molecule?
**A.** 19 µM

**Q.** And the “Ki/IC50 Or EC50” value (TBXA2R; Table 2, TBXA2R, accurate to ±20%)?
**A.** 19 µM

**Q.** And the “MCP-1 (CCL2) and sPGE2 levels” value ([1]; peripheral blood mononuclear cells and venular endothelial cells)?
**A.** dose-dependently decreased

**Q.** What about the Ki/IC50 (CHRM1; Table 1, predicted target CHRM1) of the same molecule?
**A.** 12 µM

**Q.** And the “Ki/IC50 Or EC50” value (ADRA1A)?
**A.** 16 µM

**Q.** And the “Ki/IC50 Or EC50” value (SLC6A2)?
**A.** 20 µM

**Q.** And the “Ki/IC50 Or EC50” value (SCN5A)?
**A.** 33 µM

**Q.** What about the Papp [2] of the same molecule?
**A.** 8.3 ×10⁻⁶ cm/s

**Q.** What about the “concentrations in the blood” value ([3]; dosed at 10 mg/kg oral) of the same molecule?
**A.** negligible concentrations in the blood

**Q.** What about the Cmax ([3]; in vivo, po, 10 mg/kg) of the same molecule?
**A.** < 2.6 nM

**Q.** For CCCCCCCCCCCCOS(=O)(=O)[O-].[Na+] [Sodium lauryl sulfate], which Ki/IC50 (SLCO2B1; Table 1, predicted target SLCO2B1) is on record?
**A.** 2.8 µM

**Q.** What about the “Ki/IC50 Or EC50” value (PDE4D) of the same molecule?
**A.** 23 µM

**Q.** What about the “Ki/IC50 Or EC50” value (HTR1A) of the same molecule?
**A.** 15 µM

**Q.** What about the “Ki/IC50 Or EC50” value (CHRM1; Table 2, CHRM1, accurate to ±20%) of the same molecule?
**A.** 29 µM

**Q.** And the “Ki/IC50 Or EC50” value (ADORA3)?
**A.** 15 µM

**Q.** What about the “Ki/IC50 Or EC50” value (ADRA1A) of the same molecule?
**A.** 15 µM

**Q.** And the “Ki/IC50 Or EC50” value (DRD3)?
**A.** 18 µM

**Q.** And the “Ki/IC50 Or EC50” value (PRG)?
**A.** 15 µM

**Q.** What about the Ki/IC50 (SLCO1B1) of the same molecule?
**A.** 2.9 µM

**Q.** What does the source list for FD&C Red No. 3?
**A.** Ki/IC50 Or EC50 (PDE4D): 0.32 µM; Ki/IC50 Or EC50 (PDE3A; Table 2, PDE3A, accurate to ±20%): 0.092 µM; IC50 (PDE3A; Table 4, target PDE3A): 0.092 µM; Ki/IC50 (PRMT1): 0.46 µM; Ki/IC50 Or EC50 (ACHE): 0.42 µM; MDCK-LE Papp: <0.5 ×10⁻⁶ cm/s; %F [4]: 0.7%; plasma protein binding [5]: 99%
